What was measured:
[1] = system: panel of 11 human melanoma and lung cancer cell lines; assay: MART-1 T cell cytotoxicity assay in a panel of tumor cell lines; type: cell-based
Procedure: (§1) 1.2×10^5 tumor cells were seeded per well in 12-well culture plates (Greiner). CD8 T cells were admixed in serial dilutions (two-fold, starting at a 1:1 ratio). After 24 hours, T cells were washed away. After a further 4 days, plates were fixed and stained for 1 hour using a crystal violet solution containing 0.1% crystal violet (Sigma) and 50% methanol (Honeywell). For quantification, remaining crystal violet was solubilized in 10% acetic acid (Sigma). Absorbance of this solution was measured on an Infinite 200 Pro spectrophotometer (Tecan) at 595 nm. In select experiments, tumor viability data was assessed with CellTiter-Blue (Promega) following manufacturer's instructions. In indicated experiments, 1 uM of birinapant (Selleck Chemicals) in DMSO (Sigma) was added during co-cultures. For Incucyte (Incucyte Zoom, Essen Bioscience) experiments, 5×10^3 tumor cells were seeded per well in 96-well culture plates (Greiner). CD8 T cells were admixed in indicated ratios and a Caspase-3/7 dye (Essen Bioscience) was added. Growth of these co-cultures was followed for 48 hours. […] In indicated experiments, enavatuzumab (indicated concentrations; Creative Biolabs) in the presence or absence of protein G (50 μg/mL; Thermo Fisher Scientific) was added. To cluster enavatuzumab, cells were pretreated for 1 hour with enavatuzumab, then protein G was added for a further 7 hours. […]

[2] = system: D10 melanoma cells; assay: T cell cytotoxicity assay with MART-1 T cells; type: cell-based, human
Procedure: 1.2×10^5 tumor cells were seeded per well in 12-well culture plates (Greiner). CD8 T cells were admixed in serial dilutions (two-fold, starting at a 1:1 ratio). After 24 hours, T cells were washed away. After a further 4 days, plates were fixed and stained for 1 hour using a crystal violet solution containing 0.1% crystal violet (Sigma) and 50% methanol (Honeywell). For quantification, remaining crystal violet was solubilized in 10% acetic acid (Sigma). Absorbance of this solution was measured on an Infinite 200 Pro spectrophotometer (Tecan) at 595 nm. In select experiments, tumor viability data was assessed with CellTiter-Blue (Promega) following manufacturer's instructions. In indicated experiments, 1 uM of birinapant (Selleck Chemicals) in DMSO (Sigma) was added during co-cultures. For Incucyte (Incucyte Zoom, Essen Bioscience) experiments, 5×10^3 tumor cells were seeded per well in 96-well culture plates (Greiner). CD8 T cells were admixed in indicated ratios and a Caspase-3/7 dye (Essen Bioscience) was added. Growth of these co-cultures was followed for 48 hours. […] In indicated experiments, enavatuzumab (indicated concentrations; Creative Biolabs) in the presence or absence of protein G (50 μg/mL; Thermo Fisher Scientific) was added. To cluster enavatuzumab, cells were pretreated for 1 hour with enavatuzumab, then protein G was added for a further 7 hours. Then, CD8 T cells were added to the tumor cells for a further 16 hours.

[3] = system: BLM; assay: T cell cytotoxicity assay of BLM clones; type: cell-based, human; conditions: wildtype and TRAF2-deficient BLM clones in vitro (FIG. 11F)
Procedure: as §1

[4] = system: BLM; assay: NSG murine xenograft of BLM clones with ACT of MART-1 T cells; type: in vivo, mouse
Procedure: For xenograft studies, 1×10^6 D10 or BLM tumor cells were admixed with Matrigel (Corning) and injected subcutaneously into NSG-β2M^null mice (The Jackson Laboratory). Growth was monitored three times per week with calipers, and tumor size was calculated using the following formula: ½×length (mm)×width (mm). When tumors reached indicated sizes, mice were randomized over different treatment groups in a blinded fashion and were administered 5×10^6 human CD8 T cells, intravenously in the tail vein. In vivo persistence of T cells was stimulated by administering 100.000 U IL-2 (Proleukin, Novartis) intraperitoneally daily for three consecutive days. In selected experiments, birinapant (MedChem Express) was administered intraperitoneally once every three days. […] In selected experiments, the PD-1-blocking antibody nivolumab (Slotervaart Hospital) was given once weekly (5 mg/kg). For studies in immunocompetent mice, 3×10^5 D4M.3A cells were injected subcutaneously into C57BI/6J mice (Janvier) and tumor growth was monitored three times per week with calipers.
(§2) To prepare lysates, snapfrozen tumor piecesd were weighed and lysed in RIPA buffer (50 mM TRIS pH 8.0, 150 mM NaCl, 1% Nonidet P40, 0.5% sodium deoxycholate, 0.1% SDS) supplemented with complete protease inhibitor cocktail (Roche Applied Science) and phosphatase inhibitors 10 mM NaF, 1 mM Na3VO4, 1 mM sodium pyrophosphate and 10 mM beta-glycerophosphate. Protein concentration was determined using a Bradford Protein Assay (Biorad).

[5] = system: cIAP1/2; conditions: Benetatos et al., 2014; FIG. 11C; cited from earlier work
[6] = system: SK-MEL-23; assay: Caspase-3/7 dye tumor cell apoptosis after MART-1 T cell attack, SK-MEL-23; type: cell-based, human; conditions: combined with TRAF2 inactivation; neutralizing TNF antibody (FIG. 6B)
Procedure: as §1

[7] = system: D10; assay: NSG murine xenograft of D10 cells with adoptive cell transfer; type: in vivo, mouse; conditions: anti-TNF antibody injected (FIG. 4C, D)
Procedure: For xenograft studies, 1×10^6 D10 or BLM tumor cells were admixed with Matrigel (Corning) and injected subcutaneously into NSG-β2M^null mice (The Jackson Laboratory). Growth was monitored three times per week with calipers, and tumor size was calculated using the following formula: ½×length (mm)×width (mm). When tumors reached indicated sizes, mice were randomized over different treatment groups in a blinded fashion and were administered 5×10^6 human CD8 T cells, intravenously in the tail vein. In vivo persistence of T cells was stimulated by administering 100.000 U IL-2 (Proleukin, Novartis) intraperitoneally daily for three consecutive days. In selected experiments, birinapant (MedChem Express) was administered intraperitoneally once every three days. Birinipant was formulated at 3 mg/ml in 12.5% captisol (CyDex Pharmaceuticals) in water adjusted to pH 4 with hydrochloric acid. […] In selected experiments, the PD-1-blocking antibody nivolumab (Slotervaart Hospital) was given once weekly (5 mg/kg). For studies in immunocompetent mice, 3×10^5 D4M.3A cells were injected subcutaneously into C57BI/6J mice (Janvier) and tumor growth was monitored three times per week with calipers.

[8] = system: TRAF2; assay: Western blot analysis of TRAF2 in treated D10 melanoma cells; type: cell-based, human
Procedure: 1.2×10^5 tumor cells were seeded per well in 12-well culture plates (Greiner). CD8 T cells were admixed in serial dilutions (two-fold, starting at a 1:1 ratio). After 24 hours, T cells were washed away. After a further 4 days, plates were fixed and stained for 1 hour using a crystal violet solution containing 0.1% crystal violet (Sigma) and 50% methanol (Honeywell). For quantification, remaining crystal violet was solubilized in 10% acetic acid (Sigma). Absorbance of this solution was measured on an Infinite 200 Pro spectrophotometer (Tecan) at 595 nm. In select experiments, tumor viability data was assessed with CellTiter-Blue (Promega) following manufacturer's instructions. In indicated experiments, 1 uM of birinapant (Selleck Chemicals) in DMSO (Sigma) was added during co-cultures. […]
as §2, with “Cells” for “To prepare lysates, snapfrozen tumor piecesd”, “were” for “were weighed and”, “(Biorad). […] Western blots were then incubated in SuperSignal West Dura Extended Duration Substrate (Thermo Scientific) and luminescence was captured on high performance autoradiography films (Amersham). […]” for “(Biorad).”

[9] = system: panel of 38 human tumor cell lines; conditions: cited from earlier work

Molecule: CC[C@H](NC(=O)[C@H](C)NC)C(=O)N1C[C@@H](O)C[C@H]1Cc1c(-c2[nH]c3cc(F)ccc3c2C[C@@H]2C[C@H](O)CN2C(=O)[C@H](CC)NC(=O)[C@H](C)NC)[nH]c2cc(F)ccc12 [birinapant, (2S)—N-[(2S)-1-[(2R,4S)-2-[[6-fluoro-2-[6-fluoro-3-[[(2R,4S)-4-hydroxy-1-[(2S)-2-[[(2S) (methylamino)propanoyl]amino]butanoyl]pyrrolidin-2-yl]methyl]-1H-indol-2-yl]-1H-indolyl]methyl]-4-hydroxypyrrolidin-1-yl]-1-oxobutan-2-yl]-2-(methylamino)propanamide]
- tumor cell survival, sgTRAF2+DMSO vs. sgTRAF2+Bir ([1]; MART-1 T cell cytotoxicity assay, p<0.001 (FIG. 6A)): significant for all cell lines
- sensitivity to T cell killing in combination with TRAF2 deletion ([1]; all tested tumor cell lines (FIG. 6A)): strong synergy between TRAF2 deletion and pharmaceutical targeting of cIAP1/2 in all tested tumor cell lines
- sensitivity to T cell killing in combination with TRAF2 inactivation ([2]; D10 cells sgCtrl or sgTRAF2, with or without birinapant (FIG. 11D)): synergized with TRAF2 inactivation in inducing sensitivity to T cell killing
- response to T cells, TRAF2 deletion plus cIAP1/2 inhibition [3]: synergistic response
- tumor control ([4]; TRAF2 KO tumors treated with birinapant (FIG. 6E)): better tumor control when compared to control tumors
- tumor volume and survival ([4]; TRAF2 genetic inactivation plus birinapant, ACT with MART-1 T cells (FIG. 6D)): induced both a reduction in tumor volume and extended survival
- degradation of BIRC2/3 protein products (cIAP1/2) [5]: known to degrade both BIRC2/3 protein products
- sensitivity to T cell-derived TNF [6]: induced a de novo sensitivity to T cell-derived TNF in SK-MEL-23

Molecule: anti-PD-1: PD-1-blocking antibody nivolumab given once weekly (5 mg/kg)
- tumor control and overall survival ([4]; anti-PD-1 added to TRAF2 KO plus birinapant (FIG. 6E)): superior tumor control, improving overall survival
- rejection of tumors ([4]; anti-PD-1 alone, wildtype BLM tumors (FIG. 6E)): failed to affect rejection of VVT tumors
- intratumoral TNF after ICB ([4]; non-responding setting (FIG. 11I)): failed to see an upregulation of TNF after ICB

Molecule: infliximab: TNF blocking antibody
- tumor control of TRAF2-deficient tumors after ACT with MART-1 T cells [7]: this tumor control was dependent on TNF

B1: TWEAK: ligand of Fn14 (TNF-like weak inducer of apoptosis); recombinant TWEAK (Peprotech) (protein)
chain: SAPKGRKTRARRAIAAHYEVHPRPGQDGAQAGVDGTVSGWEEARINSSSPLRYNRQIGEFIVTRAGLYYLYCQVHFDEGKAVYLKLDLLVDGVLALRCLEEFSATAASSLGPQLRLCQVSGLLALRPGSSLRIRTLPWAHLKAAPFLTYFGLFQVH
- sensitization of tumor cells to T cell killing ([2]; 250 ng/mL TWEAK during exposure to MART-1 T cells (FIG. 3H)): sensitized tumor cells to T cell killing
- degradation of TRAF2 ([8]; D10 melanoma cells treated 8 hours with recombinant human TWEAK (FIG. 3G)): led to the degradation of TRAF2

B2: enavatuzumab: agonistic anti-Fn14 antibody (Creative Biolabs) (antibody, chains of the INN, looked up, V domains shown)
VH: EVQLVESGGGLVQPGGSLRLSCAASGFTFSSYWMSWVRQAPGKGLEWVAEIRLKSDNYATHYAESVKGRFTISRDDSKNSLYLQMNSLRAEDTAVYYCTGYYADAMDYWGQGTLVTVSS
VL: DIQMTQSPSSLSASVGDRVTITCRASQSVSTSSYSYMHWYQQKPGKAPKLLIKYASNLESGVPSRFSGSGSGTDFTLTISSLQPEDFATYYCQHSWEIPYTFGGGTKVEIK
- sensitivity to T cell cytotoxicity ([2]; clustered with protein G, D10 and SK-MEL-147, 1:8 T cell:tumor cell ratio (FIG. 3J, 9C)): induced sensitivity to T cell cytotoxicity in two melanoma cell lines
- dependence of sensitization on T cell-derived TNF ([2]; neutralization with anti-TNF antibody (FIG. 9D)): dependent on T cell-derived TNF
- dependence of sensitization on TRAF2 ([2]; wildtype or TRAF2-deficient tumor cells (FIG. 3J)): sensitization by enavatuzumab was dependent on TRAF2
- degradation of TRAF2 ([8]; D10 melanoma cells treated 8 hours, presence or absence of protein G (FIG. 3I)): caused degradation of TRAF2, but only upon receptor clustering by the addition of protein G

B3: Fn14 agonistic antibody: humanized anti-Fn14 agonistic antibody described by Michaelson et al. (2011) (antibody, chains of the INN, looked up, V domains shown)
VH: EVQLVESGGGLVQPGGSLRLSCAASGFTFSSYWMSWVRQAPGKGLEWVAEIRLKSDNYATHYAESVKGRFTISRDDSKNSLYLQMNSLRAEDTAVYYCTGYYADAMDYWGQGTLVTVSS
VL: DIQMTQSPSSLSASVGDRVTITCRASQSVSTSSYSYMHWYQQKPGKAPKLLIKYASNLESGVPSRFSGSGSGTDFTLTISSLQPEDFATYYCQHSWEIPYTFGGGTKVEIK
- cell lines with growth inhibition [9]: approximately 50%

— patent US11629179B2, “TWEAK-receptor agonists for use in combination with immunotherapy of a cancer” (Stichting Het Nederlands Kanker Instituut - Antoni van …, priority 2018, dated 2023)
